From US8188059B2, “Compounds and methods for modulating expression of GCGR” (Isis Pharmaceuticals, Inc., priority 2006, dated 2012)
Strand notation (5' to 3'): a small letter for the sugar, then the base; units joined by * are phosphorothioate-linked, units joined directly phosphodiester-linked; [ ] holds rarer units or linkages, { } end groups; capitals alone tell only the bases. [PALM-N] = nucleoside bearing a 2'-(butylacetamido)-palmitamide (C16 palmitic acid) substituent (N: the base); e = 2'-O-(2-methoxyethyl) (MOE); l = locked nucleic acid (LNA); k = constrained ethyl (cEt); [5mC] = 5-methylcytosine; d = 2'-deoxy (DNA)

Legend:
ApoB mRNA [1] = test: ApoB mRNA in liver of Balb/c mice, BNA short antisense compounds, i.p. twice per week for three weeks (Example 26, Table 89); format: in vivo, mouse; conditions: relative to saline
Procedure: The short antisense compounds shown in Table 88 were tested for their effects in vivo. […] A 5-10-5 MOE gapmer was used for a control treatment. Mice were sacrificed approximately 48 hours following the final dose. Liver tissue was collected for RNA isolation, and blood was collected for serum chemistry analyses. ApoB mRNA levels were measured by real-time PCR as described herein. ApoB mRNA levels were normalized to RNA levels as determined by RIBOGREEN, and are presented in Table 89 as percent inhibition relative to ApoB mRNA levels in saline-treated control animals.

ApoB mRNA [2] = test: ApoB mRNA in liver of Balb/c mice, single i.p. dose 8, 4, 2 or 1 μmol/kg, with ED50 (Example 28, Table 92); format: in vivo, mouse; conditions: Balb/c mice, relative to saline
Procedure: (§1) The short antisense compounds tested were ISIS 387462 and ISIS 398296. Each dose group consisted of four animals. A 5-10-5 MOE gapmer was used for a control treatment. Mice were sacrificed approximately 48 hours following the final dose. Liver tissue was collected for RNA isolation, and blood was collected for serum chemistry analyses. ApoB mRNA levels were measured by real-time PCR as described herein. ApoB mRNA levels were normalized to RNA levels as determined by RIBOGREEN, and are presented in Table 92 as percent inhibition relative to ApoB mRNA levels in saline-treated control animals.
At the 8 umol/kg dose, ApoB inhibition by the short antisense compounds was greater than observed with a 5-10-5 MOE gapmer at an equivalent dose. […] Triglycerides were reduced at the highest dose.

PTP1B mRNA [3] = test: Antisense inhibition of human PTP1B in HepG2 cells at 25 nM (Example 24, Table 85); format: cell-based
Procedure: Short antisense compounds targeted to a PTP1B nucleic acid were tested for their effects on PTP1B mRNA in vitro. Cultured HepG2 cells at a density of 10000 cells per well in a 96-well plate were treated with 25 nM of antisense oligonucleotide. After the treatment period, RNA was isolated from the cells and PTP1B mRNA levels were measured by quantitative real-time PCR, as described herein. PTP1B mRNA levels were adjusted according to total RNA content as measured by RIBOGREEN®. Results are presented as percent inhibition (% Ihib) of PTP1B, relative to untreated control cells.

PTP1B mRNA [4] = test: Antisense inhibition of human PTP1B in HuVEC cells at 3 nM (Example 23, Table 84); format: cell-based
Procedure: Short antisense compounds targeted to a PTP1B nucleic acid were tested for their effects on PTP1B mRNA in vitro. Cultured HuVEC cells at a density of 5000 cells per well in a 96-well plate were treated as described herein with 3 nM of short antisense compound. After the treatment period, RNA was isolated from the cells and PTP1B mRNA levels were measured by quantitative real-time PCR, as described herein. PTP1B mRNA levels were adjusted according to total RNA content as measured by RIBOGREEN®. Results are presented as percent inhibition of PTP1B (% Inhib), relative to untreated control cells.

PTP1B mRNA [5] = test: Dose response for human PTP1B in HuVEC cells, Primer Probe Set 3000 (Example 25, Table 87); format: cell-based
Procedure: (§2) Human vascular endothelial (HuVEC) cells were plated at a density of 5000 cells per well and treated as described herein with nM concentrations of short antisense compound as indicated in Table 86. After the treatment period, RNA was isolated from the cells and PTP1B mRNA levels were measured by quantitative real-time PCR, as described herein. PTP1B mRNA levels were adjusted according to total RNA content as measured by RIBOGREEN®. Two different human PTP1B primer probe sets were used to measure mRNA levels. Results with Primer Probe Set (PPS) 198 are shown in Table 86, and results with Primer Probe Set (PPS) 3000 are shown in Table 87. Results are presented as percent inhibition of PTP1B mRNA expression relative to untreated control cells.

PTP1B mRNA [6] = test: Dose response for human PTP1B in HuVEC cells, Primer Probe Set 198 (Example 25, Table 86); format: cell-based
Procedure: as §2

rat SGLT2 mRNA = test: Rat SGLT2 mRNA levels in kidney, ISIS 379692 and ISIS 388625, Sprague-Dawley rats (Example 15, Table 70); format: in vivo; conditions: i.p. twice per week for three weeks
Procedure: The effect of ISIS 379692 1-10-1 MOE gapmer and ISIS 388625 MOE 2-8-2 gapmer (see Table 70) on rat SGLT2 mRNA levels in vivo. […] Rats were sacrificed 48 hours following last administration and evaluated for SGLT2 levels in kidney. Target levels were determined by RT, real-time PCR as described by other examples herein. PCR results were normalized to an internal ISIS control.

[7] = HbA1c status in ZDF rats (Example 16, Table 72); format: in vivo, rat; conditions: compared to PBS and control treated animals
Procedure: (§3) ISIS 388625, 388626 and control oligo ISIS 388628 were analyzed for their effect on ZDF rat plasma glucose levels and HbA1c. The leptin receptor deficient Zucker diabetic fatty (ZDF) rat is a useful model for the investigation of type 2 diabetes. Diabetes develops spontaneously in these male rats at ages 8-10 weeks, and is associated with hyperphagia, polyuria, polydipsia, and impaired weight gain, symptoms which parallel the clinical symptoms of diabetes (Phillips M S, et al., 1996, Nat Genet. 13, 18-19). Six week old ZDF rats were injected intraperitoneally with short antisense compound at a dose of 400 nM/kg once a week for twelve weeks. Data are illustrated in Tables 71 and 72.

mouse SGLT2 mRNA [8] = test: Mouse SGLT2 mRNA levels in kidney, additional 1-10-1 and 2-8-2 MOE gapmers, Balb/c mice (Example 15, Table 68); format: in vivo
mouse SGLT2 mRNA [9] = test: Mouse SGLT2 mRNA levels in kidney, MOE versus Methyleneoxy BNA gapmers, Balb/c mice (Example 15, Table 69); format: in vivo
Procedure: The effect of ISIS 379692 1-10-1 MOE gapmer and ISIS 388625 2-8-2 MOE gapmer are compared with the effect of ISIS 392170 1-10-1 Methyleneoxy BNA Gapmer and ISIS 392173 2-8-2 Methyleneoxy BNA Gapmer (see Table 69) on mouse SGLT2 mRNA levels in vivo. Data are taken from three experiments in which male 6-week old Balb/c mice were dosed twice per week for three weeks with 5, 25 and 125 nmol/kg of either the ISIS 379692 1-10-1 MOE gapmer or the ISIS 388625 2-8-2 MOE gapmer given by intraperitoneal injection. Mice were sacrificed 48 hours following last administration and evaluated for SGLT2 mRNA levels in kidney. Target levels were determined by RT, real-time PCR as described by other examples herein. PCR results were normalized to an internal ISIS control. The data are expressed as percent change (“+” indicates an increase, “−” indicates a decrease) relative to saline treated animals and are illustrated in Table 69.

[10] = Plasma glucose in ZDF rats, once a week for twelve weeks (Example 16, Table 71); format: in vivo, rat; conditions: compared to PBS and control treated animals
Procedure: as §3

[11] = Standard glucose tolerance test and urinary glucose excretion in dog (Example 17); format: in vivo
From the text: Even greater reduction can be achieved at slightly higher doses. […] Peak plasma glucose levels were decreased by over 50% on average and the subsequent drop in glucose was lessened compared to saline controls in a standard glucose tolerance test.

dog SGLT2 mRNA = test: Dog SGLT2 mRNA levels in kidney, beagle dogs, subcutaneous (Example 17, Table 73); format: in vivo; conditions: for % change in SGLT2 expression relative to saline: subcutaneous twice weekly, day 46
Procedure: ISIS 388625 is a 2-8-2 MOE Gapmer with sequence […] (SEQ ID NO: 246) (e.g. see Table 71). The effect of ISIS 388625 on dog SGLT2 mRNA levels. Data are taken from two dosing groups in which a total of nine male beagle dogs were dosed with either one or ten mg/kg/week of ISIS or saline given by subcutaneous injection twice weekly. On day 46 of the study all dogs were sacrificed and evaluated for SGLT2 levels in kidney. Target levels were determined by quantitative RT, real-time PCR as described by other examples herein. PCR results were normalized to an internal ISIS control.

ApoB mRNA [12] = test: ApoB mRNA in liver of Balb/c mice, palmitic acid conjugates, single i.p. dose, with ED50 (Example 30, Table 95); format: in vivo, mouse; conditions: single i.p. injection
Procedure: as §1, with “0.4,” for “The short antisense compounds tested were ISIS 387462”, “0.16 umol/kg.” for “ISIS 398296.”, “95” for “92”
(§4) At the 2.5 umol/kg dose, ApoB inhibition by the short antisense compounds was greater than observed with a 5-10-5 MOE gapmer at an equivalent dose. […] Triglycerides were reduced at the 2.5 and […] doses of ISIS 387462 and ISIS 391872.

[13] = Triglycerides, total cholesterol, HDL-C, LDL-C and adverse effects (Example 30); format: in vivo, mouse
Procedure: as §1, with “0.4,” for “The short antisense compounds tested were ISIS 387462”, “0.16 umol/kg.” for “ISIS 398296.”, “95” for “92”
as §4

[14] = 0.1 umol/kg i.p. twice per week for three weeks

## 398296 (antisense kG*kG*dT*dA*dC*dA*dT*dG*dG*dA*dA*dG*kT*kC) [compound 398296]
ApoB mRNA [1]; [14]
  % Inhib (ApoB mRNA in liver): 17%
ApoB mRNA [1]; 0.32 umol/kg i.p. twice per week for three weeks
  % Inhib (ApoB mRNA in liver): 35%
ApoB mRNA [1]; 1 umol/kg i.p. twice per week for three weeks
  % Inhib (ApoB mRNA in liver): 80%
ApoB mRNA [1]; 3.2 umol/kg i.p. twice per week for three weeks
  % Inhib (ApoB mRNA in liver): 98%
ApoB mRNA [2]; single i.p. dose 1 umol/kg
  % Inhib (ApoB mRNA in liver): 19%
ApoB mRNA [2]; single i.p. dose 2 umol/kg
  % Inhib (ApoB mRNA in liver): 54%
ApoB mRNA [2]; single i.p. dose 4 umol/kg
  % Inhib (ApoB mRNA in liver): 81%
ApoB mRNA [2]; single i.p. dose 8 umol/kg
  % Inhib (ApoB mRNA in liver): 97%

## 399301 (antisense eG*eT*dG*dT*dG*d[5mC]*dA*d[5mC]*dA*d[5mC]*dA*dG*e[5mC]*eT) [compound 399301]
PTP1B mRNA [3]
  % Inhib (PTP1B mRNA): 43%
PTP1B mRNA [4]
  % Inhib (PTP1B mRNA): 55%
PTP1B mRNA [5]; PPS 3000, 1.11 nM
  % Inhibition of PTP1B mRNA: 16%
PTP1B mRNA [5]; PPS 3000, 3.33 nM
  % Inhibition of PTP1B mRNA: 65%
PTP1B mRNA [5]; PPS 3000, 10.0 nM
  % Inhibition of PTP1B mRNA: 93%
PTP1B mRNA [5]; PPS 3000, 30.0 nM
  % Inhibition of PTP1B mRNA: 99%
PTP1B mRNA [6]; PPS 198, 1.11 nM
  % Inhibition of PTP1B mRNA: 8%
PTP1B mRNA [6]; PPS 198, 3.33 nM
  % Inhibition of PTP1B mRNA: 63%
PTP1B mRNA [6]; PPS 198, 10.0 nM
  % Inhibition of PTP1B mRNA: 91%
PTP1B mRNA [6]; PPS 198, 30.0 nM
  % Inhibition of PTP1B mRNA: 97%

## ISIS 388625: SGLT2; TGTTCCAGCCCA 2-8-2 MOE Gapmer (antisense eT*eG*dT*dT*d[5mC]*d[5mC]*dA*dG*d[5mC]*d[5mC]*e[5mC]*eA)
Rat SGLT2 mRNA; dose 3.125 umol/kg (head)
  % change in SGLT2 expression relative to saline: +25%
Rat SGLT2 mRNA; dose 12.5 umol/kg (head)
  % change in SGLT2 expression relative to saline: −15%
Rat SGLT2 mRNA; dose 50 umol/kg (head)
  % change in SGLT2 expression relative to saline: −65%
Rat SGLT2 mRNA; dose 200 umol/kg (head)
  % change in SGLT2 expression relative to saline: −80%
[7]
  HbA1C: significantly reduced
Mouse SGLT2 mRNA [8]; 0.02 umol/kg i.p. twice per week for three weeks
  % change in SGLT2 expression relative to saline: −65%
Mouse SGLT2 mRNA [8]; [14]
  % change in SGLT2 expression relative to saline: −88%
Mouse SGLT2 mRNA [8]; 0.5 umol/kg i.p. twice per week for three weeks
  % change in SGLT2 expression relative to saline: −90%
Mouse SGLT2 mRNA [9]; 5 nmol/kg i.p. twice per week for three weeks
  SGLT2 mRNA, percent change relative to saline treated animals: −18 percent change
Mouse SGLT2 mRNA [9]; 25 nmol/kg i.p. twice per week for three weeks
  SGLT2 mRNA, percent change relative to saline treated animals: −47 percent change
Mouse SGLT2 mRNA [9]; 125 nmol/kg i.p. twice per week for three weeks
  SGLT2 mRNA, percent change relative to saline treated animals: −70 percent change
[10]
  Plasma glucose levels: significantly reduced
[11]
  Urinary glucose excretion: increased
  glucose tolerance: improved glucose tolerance
[11]; standard glucose tolerance test, compared to saline controls
  Peak plasma glucose levels decreased, on average: over 50%
Dog SGLT2 mRNA; 1 mg/kg/wk dose
  reduction of SGLT2 mRNA / inhibition of the expression of SGLT2: greater than 80%
Dog SGLT2 mRNA; 1 mg/kg/wk
  % change in SGLT2 expression relative to saline: −85%
Dog SGLT2 mRNA; 10 mg/kg/wk
  % change in SGLT2 expression relative to saline: −95%

## ISIS 391872: ApoB; GGTACATGGAAGTC 1-1-10-2 2′-(butylacetomido)-palmitamide Methyleneoxy BNA/Methyleneoxy BNA Unmodified cytosines in gap (antisense [PALM-G]*lG*dT*dA*dC*dA*dT*dG*dG*dA*dA*dG*lT*l[5mC])
ApoB mRNA [12]
  estimated ED50: 1.9 mg/kg
[13]; Example 30
  LDL-C: fell below the limit of detection
[13]; at the 2.5 and 1.0 mg/kg doses (so in the source)
  Triglycerides: reduced
[13]; dose-dependent manner
  total cholesterol, HDL-C and LDL-C: markedly reduced
